From patent publication US20050123902A1, “Human papillomavirus inhibitors” (priority 2003, published 2005) come the findings set out here.

The assay concerns the target HPV-16 E2 protein (Human papillomavirus type 16, UniProt P03120). Nature of the assay: Determination of dissociation constants by surface plasmon resonance (Biacore 3000, captured GST-E2 fusion). It is filed as binding. As to conditions: steady state model, PBST containing 2% (v/v) DMF, read-out: dissociation constant. The method, then:
Surface Plasmon Resonance Instrument. Surface plasmon resonance experiments were performed with a Biacore® 3000 Biosensor (Biacore AB, Uppsala, Sweden). To keep the instrument in good working condition, a series of washing steps were performed on a weekly basis. In addition to the prescribed maintenance washes, the fluidic system was primed three times in a row with the following reagents: 0.5% (w/v) SDS, 6 M urea, 1% (v/v) acetic acid, and 0.2 M NaHCO3. When not in use, a standby program injects water at a flow rate of 5 μL/minute to prevent salt build-up in the lines or integrated fluidic cartridge. Whenever running buffer was changed, the system was primed three times in order to equilibrate the sensor chip and the instrument.
Immobilization of anti-GST Antibody. A CM5 sensor chip was docked and the system was primed three times with filtered and degassed PBST containing 5% (v/v) DMF. Affinity purified and sterile filtered goat-anti-GST IgG (0.8 mg/mL in 150 mM NaCl) from the Biacore GST kit for fusion capture was diluted to 30 μg/mL in 10 mM sodium acetate, pH 5.0 (100 μL per immobilization). Two flow cells were activated with 1:1 NHS:EDC (N-hydroxysuccinimide:[…]) for 8 minutes at a flow rate of 5 μL/min using the “surface preparation: immobilization: amine coupling” wizard application. […]
In general terms: Surface plasmon resonance follows binding to a sensor surface in real time, without labels.

HPV-16 E2 protein, sequence (P03120 whole entry, the tested form may be a part): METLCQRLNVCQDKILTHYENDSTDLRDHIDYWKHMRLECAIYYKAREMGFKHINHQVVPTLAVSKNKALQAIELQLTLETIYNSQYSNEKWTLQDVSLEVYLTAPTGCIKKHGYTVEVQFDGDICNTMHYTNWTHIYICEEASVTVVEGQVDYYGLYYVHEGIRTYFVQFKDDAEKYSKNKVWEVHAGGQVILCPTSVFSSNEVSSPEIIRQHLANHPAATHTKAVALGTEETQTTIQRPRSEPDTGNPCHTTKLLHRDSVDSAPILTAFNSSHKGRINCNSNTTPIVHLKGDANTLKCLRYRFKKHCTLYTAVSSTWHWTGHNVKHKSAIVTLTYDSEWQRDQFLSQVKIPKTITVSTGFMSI

Regarding `Cn1nnnc1SC[C@@H]1C[C@H](c2ccc(CO)cc2)O[C@H](c2ccc(CN)cc2)O1` [compound 2], the Kd amounted to 2.7 nM.
